Assay results reported in patent publication US11390629B2, “1,5-disubstituted 1,2,3-triazoles are inhibitors of Rac/Cdc42 GTPases” (UNIVERSITY OF PUERTO RICO, priority 2016, dated 2022).
Values joined by “and” are separate entries in the source; they are usually repeats but may differ in a detail not shown here. Identical values can stand only once. “Also recorded” adds a separate entry of the source. Like-named read-outs stand apart in the source and are kept apart here.

Assays:
[1] = test system: caspase-3/7 activity in MDA-MB-231 cells; experiment: Caspase-Glo 3/7 apoptosis assay; format: cell-based, human; settings: 0-1000 nM, 24 h, MDA-MB-231 and GFP-HER2-BM
Procedure: Effect of MBQ-167 on cell survival.
To evaluate whether the cell cycle arrest was accompanied by an increase in apoptosis, the activity of the effector caspases3/7 in whole cell populations (both attached and detached). […] To determine whether MBQ-167 induces anoikis, the relative levels of caspase-3/7 activities were analyzed in the attached and detached MDA-MB-231 cell populations following 24 h at 250 nM MBQ-167.
Apoptosis was measured using a Caspase-Glo3/7 Luminescence Assay Kit as per manufacturer's instructions (Promega, Corp., Madison, Wis., USA). Following treatment of equal numbers of cells with vehicle or MBQ-167 for 24 h, Caspase-3/7 Glo reagent was added and incubated at room temperature for 60 min. Caspase-3/7 activities were determined by quantifying luminescence.

MDA-MB-231 cells [2] = experiment: Bright field microscopy of cell polarity, rounding and detachment, MDA-MB-231; format: cell-based, human
Procedure: FIGS. 2A, 2B, 2C. Breast cancer cell phenotype following MBQ-167 treatment.
Human breast cancer cells were visualized by bright field microscopy following MBQ-167 treatment. At ≥100 nM, starting at six hours, MBQ-167 induced a loss of polarity in metastatic breast cancer cells. […] On the other hand, non-cancer mammary epithelial MCF10A and epithelial breast cancer MCF-7 cells were resistant to MBQ-167 and remained polarized and attached to each other and the substratum (FIG. 2A).
FIG. 2A; FIG. 2B. […] At ≥100 nM, starting at six hours MBQ-167 induces a loss of polarity and detachment from the substratum in MDA-MB-231 metastatic breast cancer cells but not in MCF-7 non-metastatic human breast cancer cells. 250 nM MBQ-167 results in ˜70% of the cells losing polarity and assuming a rounded phenotype. Higher concentrations of MBQ-167, i.e. 500 nM for 24 h results in a ˜90% loss in cell polarity and detaches from the substratum.

[3] = Toxicity observation: mouse weight and phenotype; format: in vivo, mice; settings: 65-day study, 1 and 10 mg/kg BW; listed as MBQ-167
Description: The mice from this study were also examined once a week for potential toxicity. […] At necropsy, livers were harvested, lysed and subjected to liver enzyme assays as a test for potential toxic effects.

PAK = experiment: Western blot of PAK activity, MCF-7 cells; format: cell-based, human; settings: MCF-7, 250 nM, 24 h; listed as MBQ-167
STAT3 = experiment: Western blot of STAT3 phosphorylation (Y705); format: cell-based, human; settings: 24 h, attached and detached MDA-MB-231 and GFP-HER2-BM cells
Description: FIGS. 12A, 12B. Effect of MBQ-167 on STAT3 activation and cell migration in GFP-HER2-BM metastatic cancer cells.

[4] = test system: p38-MAPK, p42/44 MAPK, Akt; experiment: Western blot of MAPK and Akt signaling, MDA-MB-231; format: cell-based, human; settings: 250 nM, 24 h
Description: FIGS. 13A, 13B. MAPK and Akt signaling in MDA-MB-231 cells. […] Representative western blots of N=3 are shown.

[5] = test system: c-Myc, Bcl-XL, Bcl-2, BAD; experiment: Expression of oncogenes and survival proteins, MDA-MB-435 cells; format: cell-based, human; settings: 150 nM, 24 h
Description: Studies from a number of cancer types have shown that Rac/Cdc42/PAK signaling can induce cell survival and evade apoptosis. Therefore, the decreased cell viability and increased apoptosis by MBQ-167, at concentrations that inhibit both Rac and Cdc42, is predicted to be due to dual inhibition of Rac and Cdc42 function.

MDA-MB-231 cells [6] = experiment: Transwell cell migration assay, MDA-MB-231; settings: 250 and 500 nM, attached population
Cdc42 = Cdc42 (Homo sapiens, UniProt P60953); experiment: G-LISA Cdc42 activity, GFP-HER2-BM cells; format: cell-based; parameters: endogenous in cells; host or cells: MDA-MB-231; settings: 250 nM, 24 h
Cdc42, sequence (P60953 whole entry): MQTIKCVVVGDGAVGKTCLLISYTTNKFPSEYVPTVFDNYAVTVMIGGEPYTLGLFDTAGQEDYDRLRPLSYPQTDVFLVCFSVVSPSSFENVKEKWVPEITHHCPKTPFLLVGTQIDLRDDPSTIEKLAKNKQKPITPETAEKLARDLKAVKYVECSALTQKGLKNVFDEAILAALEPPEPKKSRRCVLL

[7] = test system: MCF10A mammary epithelial cells; experiment: Cell viability assay (CellTiter 96 / MTT), MCF10A; settings: 120 h
Bcl-2, Bcl-xL, Mcl-1 = experiment: Western blot of pro-survival proteins, MDA-MB-231; settings: 250 nM, 24 h
[8] = Cell viability assay (CellTiter 96 / MTT), MDA-MB-231; settings: human
MDA-MB-231 cells [9] = experiment: as above
Rho = Rho activation pulldown (Rhotekin), GFP-HER2-BM cells; settings: 24 h, listed as MBQ-167
[10] = test system: GFP-MDA-MB-231 mammary fat pad tumors; experiment: Mammary fat pad tumor growth, GFP-MDA-MB-231 cells in SCID mice; settings: 50 days

CCn1c2ccccc2c2cc(-n3nncc3-c3ccccc3)ccc21 [I-1, 9-ethyl-3-(5-phenyl-1H-1,2,3-triazol-1-yl)-9H-carbazole]
caspase-3/7 activity in whole cell populations [1]: dose-dependent increase
cells losing polarity and assuming a rounded phenotype (MDA-MB-231 cells [2]; 250 nM): ~70%
cell rounding / loss of polarity and detachment from the substratum (MDA-MB-231 cells [2]; 500 nM, 24 h, listed as MBQ-167): ~90% and ~95%
concentration inducing loss of polarity (MDA-MB-231 cells [2]; starting at six hours): ≥ 100 nM
weight loss or phenotypic changes [3]: did not show any significant weight loss or phenotypic changes; also recorded: does not exert toxic effects
effect on PAK activity (PAK): did not affect; also recorded: does not inhibit
effect on STAT3 activity (STAT3): decreased STAT3 activity
effect on p38-MAPK, p42/44 MAPK and Akt activities [4]: did not affect
expression of c-Myc, Bcl-XL, Bcl-2 [5]: reduced expression
pro-apoptotic protein BAD [5]: concomitant increase
Rac Activity (Active Rac/Total Rac) (Rac; 250 nM, 24 h, MCF-7 cells, vehicle = 1.0): 1.075 ± 0.3
effect on Rac activity (Rac; MCF-7, 250 nM, listed as MBQ-167): insensitive; also recorded: does not affect
reduction of directed migration (MDA-MB-231 cells [6]): 60-70%
effect on Cdc42 activity (Cdc42): inhibits
GI50 ([7]; Homo sapiens, MCF-10A): 0.35 µM
effect on viability of MCF7 and MCF-10A cells ([7]; at the GI50 concentrations of the metastatic cells): does not affect the viability
expression of pro-survival proteins Bcl-2, Bcl-xL, Mcl-1 (Bcl-2, Bcl-xL, Mcl-1): significant decrease
viability at 24 h, 5 µM ([8]; MDA-MB-231, GFP-HER2-BM, MCF-7 and MCF-10 cells): ~75%
viability at 24 h, 0.3 µM ([8]; MDA-MB-231 cells): 100%
cell death (MDA-MB-231 cells [9]; 1000 nM, 120 h, all cell types (MDA-MB-231, GFP-HER2-BM, MCF10A)): ~100%
GI50 (MDA-MB-231 cells [9]; 120 h, listed as MBQ-167): 0.11 µM
GI50 (MDA-MB-231 cells [9]; Homo sapiens, MDA-MB-231, 120 h, 120 h): ~0.13 µM
GI50 (MDA-MB-231 cells [9]; Homo sapiens, MDA-MB-231, read-out: GI50 (μM) MDA-MB-231, MDA-MB-231): 0.128 µM
effect on Rho activity (Rho): did not affect; also recorded: does not affect
inhibition of tumor growth ([10]; 1.0 mg/kg BW i.p. 3x a week): 90%
inhibition of tumor growth ([10]; 5.0 mg/kg BW i.p. 3x a week): 95%
inhibition of tumor growth ([10]; 10 mg/kg BW i.p. 3x a week): 100%
